Data set [1] has as its target T1, CR3 (Homo sapiens, UniProt P11215).
T1 construct: endogenous in cells
The experiment in a line: Inhibition of SZP-FITC staining of neutrophils by unlabeled polysaccharides. The settings on record: compared with soluble yeast MP β-glucan or SZP. It counts as binding. Here is the method:
Neutrophils were incubated at 4° C. with graded concentrations of β-glucans (SZP, laminarin, MP β-glucan, barley β-glucan, and lentinan), α-mannan or dextran for 15 minutes and then stained by addition of 1.0 mg/ml of SZP-FITC and incubated for an additional 15 minutes at 4° C. Percentage inhibition was then compared with polysaccharide concentration. […] Similar results were obtained when the same unlabeled polysaccharides were examined for inhibition of laminarin β-glucan-FITC staining. The rank order for inhibiting activity for both experiments was SZP>laminarin>MP β-glucan. However, CM β-glucan (carboxymethyl β-glucan from yeast), barley β-glucan, and lentinan inhibited laminarin-FITC staining more efficiently than they inhibited SZP-FITC staining.

In data set [2] the test system is human LAN-1 neuroblastoma. Nature of the data set: Oral barley β-glucan with antibody against LAN-1 neuroblastoma xenograft (FIG. 10). It counts as in vivo, athymic BALB/c mice. To be noted: β-glucan daily by gavage for 21-29 days; 3F8 i.v. twice weekly. Here is the method:
Neuroblastoma cells were xenografted subcutaneously in athymic BALB/c mice. Treatment started in groups of 5 mice, 2 weeks after tumor implantation when visible tumors reached 0.7-0.8 cm in diameter. The β-glucan groups was treated with […] daily by gavage for a total of 21-29 days. Monoclonal antibodies (3F8) were administered i.v. at a dose of […] twice weekly. Tumor size was measured from the first day of treatment, and the product of the largest diameter was expressed as a percentage of the size on day zero.

The target in data set [3] is T1, CR3. Nature of the data set: Neutrophil fluorescence staining by FITC-labeled polysaccharides (flow cytometry). It counts as binding. The settings on record: neutrophils. The source says: Fluorescence intensity values obtained with individual polysaccharide-FITC conjugates cannot be compared, since the molar ratio of FITC to polysaccharide is likely to differ and cannot be readily calculated.
On the technique in general: A flow cytometer gives signals particle by particle.

The test system of data set [4] is Human NK cells. The experiment in a line: β-glucan and CR3-dependent stimulation of NK cell cytokine secretion, ELISA (FIG. 13). It counts as cell-based. To be noted: 18 hours at 37° C.; particulate yeast β-glucan and grifolan 2 g/ml, MP β-glucan and SZP 2.0 μg/ml. Here is the method:
The function of NK cells in mediating host defense includes both direct cytotoxicity of tumor cells and the secretion of cytokines such as TNF-α and IFN-γ that can potentially regulate immune responses and recruit tumoricidal macrophages. […] Human NK cells were cultured with either particulate yeast β-glucan or soluble CR3-binding polysaccharides for 18 hours at 37° C. Culture supernatants were then analyzed for TNF-α by ELISA. […] Anti-CR3 blocks both β-glucan binding to CR3, as well as the binding of primed CR3 to iC3b on the EC3bi target cells.
For orientation: An ELISA detects its analyte on a solid surface through an enzyme-linked reagent.

The test system of data set [5] is advanced low-grade or slow-growing NHL. The settings on record: patients who completed treatment; cited from earlier work.
Data set [6] concerns MMT mammary carcinoma. The experiment in a line: β-glucan therapy of MMT mammary carcinoma in normal and C3-deficient 129/J mice (FIG. 8). It counts as in vivo. To be noted: daily i.v. therapy. From the text:
The requirement for C3 in β-glucan therapy was confirmed in experiments with C3-deficient 129/J mice implanted with the MMT mammary carcinoma. Twelve normal (C3+/+) and 12 C3-deficient (C3−/−) 129/J mice were implanted with the MMT mammary carcinoma tumor cell line and palpable tumors were allowed to form before beginning daily i.v. therapy of groups of 6 mice each with PBS or β-glucan. A similar protocol was used with normal (CD+/+) and CR3-deficient (CD11b-knockout; Cd11b−/−) BALB/c mice implanted with Ptas64 mammary tumors.

The subject of data set [7] is EL-4 lymphoma. The experiment in a line: mAb and/or β-glucan therapy of hepatic EL-4 lymphoma (FIG. 9, FIG. 15). It counts as in vivo, C57B1/6 mice. The settings on record: therapy from day 10 for 2 weeks; SZP β-glucan 100 μl of 4 mg/ml i.v. daily; 3F8 100 μl of 2 mg/ml i.v. every 3rd day. Here is the method: Mice were injected with the EL-4 cells i.v., a protocol known to result in liver metastases. Ten days later, the mice were given daily i.v. doses of β-glucan alone, 3F8 mAb to GD2 ganglioside (a prominent tumor antigen of EL-4 cells), or 3-glucan plus 3F8 mAb. The 3F8 mAb is IgG3 and is a potent activator of complement and also mediates ADCC. […] As expected, the β-glucan had little effect on its own since the tumors bore little or no iC3b.
The C57B1/6 lymphoma EL-4, that highly expresses membrane GD2 ganglioside, was provided by Dr. Nai-Kong V. Cheung. Normal C57B1/6 mice were injected with 3×10^5 EL-4 cells i.v. to generate liver tumors (Zhang, H., et al., Cancer Res., 58: 2844-2849 (1998)). Ten days later, 4 groups of 6 mice were given i.v. 100 μl doses of: a) PBS (control group), b) SZP β-glucan (4 mg/ml) repeated daily, c) 3F8 mAb to GD2 ganglioside (2 mg/ml) repeated every 3rd day, or d) both daily β-glucan and 3F8 mAb every 3rd day. After 2 weeks of therapy, the mice were sacrificed and their livers were removed and weighed in comparison to the livers of a group of normal tumor-free mice. The net weight of liver tumors was calculated by subtracting the weight of a normal liver (1.0 g) from the weights of the livers from tumor-bearing mice. […]

Data set [8] relates to RMA-S lymphoma. The experiment in a line: Survival of mice with RMA-S hepatic lymphomas treated with 14.G2a and/or β-glucan (FIG. 16). It counts as in vivo, C57B1/6 mice. The settings on record: therapy from day 5 for 3 weeks. Here is the method: The C57B1/6 lymphoma EL-4, that highly expresses membrane GD2 ganglioside, was provided by Dr. Nai-Kong V. Cheung. Normal C57B1/6 mice were injected with 3×10^5 EL-4 cells i.v. to generate liver tumors (Zhang, H., et al., Cancer Res., 58: 2844-2849 (1998)). Ten days later, 4 groups of 6 mice were given i.v. 100 μl doses of: a) PBS (control group), b) SZP β-glucan (4 mg/ml) repeated daily, c) 3F8 mAb to GD2 ganglioside (2 mg/ml) repeated every 3rd day, or d) both daily β-glucan and 3F8 mAb every 3rd day. After 2 weeks of therapy, the mice were sacrificed and their livers were removed and weighed in comparison to the livers of a group of normal tumor-free mice. The net weight of liver tumors was calculated by subtracting the weight of a normal liver (1.0 g) from the weights of the livers from tumor-bearing mice. A similar liver tumor model was carried out using the C57B1/6 lymphoma RMA-S that similarly expresses GD2 ganglioside but is defective in peptide loading of MHC class I (kindly provided by Dr. Olivera J. Finn, Pittsburgh Cancer Institute, Pittsburgh, Pa.) in combination with 14.G2a mAb to GD2 ganglioside (100 μg, given i.v. every 3rd day). Mice were similarly divided into 4 groups that were treated beginning 5 days after i.v. injection of 3×10^5 cells with: 1) i.v. PBS (control), 2) i.v. NSG β-glucan (400 μg per day), 3) 14.G2a mAb, or 4) both NSG β-glucan and 14.G2a mAb. […]

Data set [9] has as its system RMA-S-MUC1 tumor cells. Nature of the data set: s.c. RMA-S-MUC1 tumor therapy with 14.G2a or BCP8 mAb and/or NSG β-glucan (FIG. 17B-C, 18B-C). The settings on record: 2-week therapy, observed for a 4-month period. It counts as in vivo, C57B1/6 mice. Here is the method:
Three different tumor therapy protocols are shown. FIG. 17A is a graph showing Pta64 therapy with 11CI anti-MMTV mAb combined with glucan. FIG. 17B is a graph showing RMA-S-MUC1 therapy with i.v. 14 G2a anti-GD2 mab combined with glucan. FIG. 17C is a graph showing RMA-S-MUC1 therapy with i.v. BCP8 anti-MUC1 mab combined with glucan. After tumor cells were implanted, small tumors were allowed to form over 5-9 days before immunotherapy was carried out for a total period of 14 days. […] In graphs B and C, C57B1/6 mice were implanted s.c. with RMA-S-MUC1 tumor cells and then 5 days later treated with either 14.G2a anti-GD2 ganglioside and/or NSG β-glucan (300 μg per day) or BCP8 IgG2b […] and/or NSG β-glucan ([…] per day). […] Mean values and standard errors (SE) of the mean are shown.
(§1) RMA-S cells transfected with human MUC1 were also provided by Dr. Finn (Soares, M. M., et al., J. Immunol., 166: 6555-6563 (2001)), and 1×10^6 cell were implanted s.c. in C57B1/6 mice in or near a mammary fat pad. […]

The test system of data set [10] is RMA-S-MUC1 tumor cells. The experiment in a line: s.c. RMA-S-MUC1 tumor therapy in CR3-deficient versus wild-type mice (FIG. 19, 20). It counts as in vivo, C57B1/6 mice. Here is the method:
FIGS. 19A-19B are graphs showing the enhancement of tumor regression mediated by NSG β-glucan requires leukocyte CR3 and fails in CR3-deficient (CD11b^−/−) mice. FIG. 19A is a graph showing the tumor diameter vs. therapy of wild type mice. FIG. 19B is a graph showing the tumor diameter vs. therapy of CR3 deficient mice. […] Tumor measurements were made at the indicated times (FIGS. 19A-19B) and then survival was monitored (FIGS. 20A-20B). Mice received 14.G2a anti-GD2 ganglioside mAb (100 μg every 3rd day) and/or NSG β-glucan (400 μg daily). There was no difference in the rate of tumor regression produced by mAb therapy alone in the CR3-deficient versus wild-type mice and there was no β-glucan enhancement of mAb-mediated tumor regression in the CR3-deficient mice. […] Mean values±SE of the mean are shown.
as §1

Data set [11] relates to Lewis Lung carcinoma tumor cells transfected with human MUC1 (LL/2-MUC1). The experiment in a line: s.c. LL/2-MUC1 Lewis lung carcinoma therapy in C3-deficient versus wild-type mice (FIG. 21, 22). It counts as in vivo, C57B1/6 mice. Here is the method:
C3-deficient (C3^−/−) mice and their wild-type littermates on a C57BL/6 background were implanted s.c. with 1×10^6 Lewis Lung carcinoma tumor cells transfected with human MUC1 (LL/2-MUC1). After allowing 7 days for development of small tumors, mice were treated with BCP8 IgG2b anti-MUC1 mAb (200 μg every 3rd day) and/or NSG β-glucan (400 μg daily) for a total therapy period of 3 weeks. […] Mean values±SE of the mean are shown.
Lewis lung carcinoma cells (LL/2, CRL-1642) originally derived from C57B1/6 mice were obtained from the ATCC and transfected with a plasmid containing cDNA for human MUC1 that was provided by Dr. Olivera Finn (Soares, M. M., et al., J. Immunol., 166: 6555-6563, 2001.). A LL/2 line expressing a uniformly high surface density of MUC1 was selected by FACS sorting of cells stained with BCP8-FITC mAb (MoFlo High Speed Cell Sorter, Dako-Cytomation, Fort Collins, Colo.). A further selection was made by passaging the cell line two times in C57B1/6 mice given the cells s.c. A tumor line was selected that both expressed uniformly high levels of surface MUC1 and was capable of generating s.c. tumors in C57B1/6 injected with as few as 5×10^5 cells. Therapy of mice bearing these s.c. tumors was initiated after 7 days when tumors were only 1-2 mm in diameter. Four groups of six C3-deficient or their wild-type littermate C57B1/6 mice were treated with: a) i.v. PBS every 3rd day (control); b) 400 μg of NSG β-glucan given i.v. daily; c) 200 μg of BCP8 anti-MUC1 mAb given i.v. every 3rd day; d) combined therapy with BCP8 mAb and NSG β-glucan. Therapy was given for 3 weeks with measurement of tumor diameters every 3rd day, and mice were sacrificed when tumors reached 15 mm diameter. Mice were observed over a total period of 90 days for tumor-free survival.

Data set [12] relates to iC3b-opsonized breast tumor cells. Nature of the data set: β-glucan priming of murine neutrophil CR3 for cytotoxicity (FIG. 4). It counts as cell-based. To be noted: normal murine neutrophils. Here is the method: The effect of β glucan priming of murine neutrophil CR3 on subsequent cytotoxic triggering by iC3b-opsonized breast tumor cells is shown in FIG. 4. […] This activity disappears, however, when antibody to the CD11b (murineCR3 equivalent) is added, interfering with the receptor's ability to bind to iC3b. […] Adding antibody against CD11b had little effect on CD11b-deficient neutrophils, as expected.

Take “(1,3),(1,4)-β-D-glucan [barley β-glucan]”: the “affinity for CR3 (in words)” value in [1] is “relatively low affinity for CR3”. Further, the “tumor growth (tumor size as percentage of day zero), in words” value in data set [2] is “neither β-glucan or mAb alone showed much effect”.

Regarding Dextran-FITC, in data set [3], the “Polysaccharide-FITC Concentration Required for Maximum Specific Fluorescence Staining (Saturation of Receptor Binding Sites)” value is listed as “No specific staining” and the “Specific Fluorescence Mean Channel at Saturation (Total-Nonspecific Fluorescence Obtained in the Presence of Excess of Unlabeled Polysaccharide)” value is 0.

Regarding grifolan, the “NK cell cytokine secretion in the absence of target cells, in words” value in [4] was “secretion of both TNF-α and IL-6”.

Turning to “rituximab: monoclonal antibody used to treat a type of non-Hodkin's lymphoma”, in data set [5], the “patients having complete remission” value was 6% and the “patients whose tumors shrunk by at least one half” value is 48%.

On to β-glucan, for which the tumor reduction result in [6] (C3-deficient (C3−/−) 129/J mice) is recorded as “no significant tumor reduction”; in data set [6] (normal (C3+/+) 129/J mice), 79%. Moreover, in data set [7], the “reduction in liver tumor net weight compared to untreated controls” value was determined as 25.6%. In addition, the “survival, in words” value in data set [8] is “no therapeutic benefit”; in data set [11] (wild-type mice), “survival advantage compared to mAb alone”. In data set [9], the survival came out at 20%. In addition, the “tumor regression, in words” value in [10] (CR3-deficient mice) is recorded as “no regression”; in data set [11] (wild-type mice, BCP8 200 μg every 3rd day, NSG β-glucan 400 μg daily, 3 weeks), “lower level of regression”. Also, the “mice remaining tumor-free (survival)” value in [10] (wild-type mice, 14.G2a 100 μg every 3rd day, NSG β-glucan 400 μg daily, 21 days) was “no survivors”. The “regression and survival, in words” value in [11] (C3-deficient mice) is on record as “neither mAb nor β-glucan, separately or combined, elicited any regression”. The “cytotoxicity towards iC3b-opsonized breast tumor cells, in words” value in data set [12] is recorded as “high level of cytotoxicity”.

Source of the values: patent US9522187B2, “Cancer therapy using beta glucan and antibodies” (University of Louisville Research Foundation, Inc., priority 2002, dated 2016).
